Active and inactive are the calls of the source. The rule behind the calls is not given here.
Columns and labels:
[1] = Cytotoxicity against human K562 cells assessed as decrease in cell survival rate incubated for 72 hrs by MTS assay; assay type: toxicity, cell-based
[2] = Cytotoxicity against human K562/A02 cells overexpressing ABCB1 assessed as decrease in cell survival rate incubated for 72 hrs by MTS assay; assay type: toxicity, cell-based
K562 [3] = experiment: Reversal of ABCB1 mediated adriamycin resistance in human K562 assessed as decrease in survival rate at 1.25 to 5 uM preincubated for 1 hrs followed by adriamycin addition and measured after 72 hrs by MTS assay; assay type: functional, cell-based; conditions: dose 1.25-5 µM, time 73.0 hrs
K562/A02 [4] = experiment: Reversal of ABCB1 mediated adriamycin resistance in human K562/A02 overexpressing ABCB1 assessed as decrease in survival rate at 1.25 to 5 uM preincubated for 1 hrs followed by adriamycin addition and measured after 72 hrs by MTS assay; assay type: functional, cell-based; conditions: dose 1.25-5 µM, time 73.0 hrs
K562 [5] = experiment: Cytotoxicity against human K562 cells assessed as decrease in cell survival rate at 5 uM incubated for 72 hrs by MTS assay; assay type: toxicity, cell-based; conditions: k562, 72 h
K562/A02 [6] = experiment: Cytotoxicity against human K562/A02 cells overexpressing ABCB1 assessed as decrease in cell survival rate at 5 uM incubated for 72 hrs by MTS assay; assay type: toxicity, cell-based; conditions: k562/a02, 72 h
K562 [7] = experiment: Reversal of ABCB1 mediated adriamycin resistance in human K562 cells assessed as reduction in survival rate at 1 uM preincubated for 1 hrs followed by adriamycin addition and measured after 72 hrs by MTS assay; assay type: functional, cell-based; conditions: time 73.0 hrs
K562 [8] = experiment: Reversal of ABCB1 mediated adriamycin resistance in human K562 cells assessed as reduction in survival rate at 5 uM preincubated for 1 hrs followed by adriamycin addition and measured after 72 hrs by MTS assay; assay type: functional, cell-based; conditions: time 73.0 hrs
K562/A02 [9] = experiment: Reversal of ABCB1 mediated adriamycin resistance in human K562/A02 cells overexpressing ABCB1 assessed as reduction in survival rate at 1 uM preincubated for 1 hrs followed by adriamycin addition and measured after 72 hrs by MTS assay; assay type: functional
K562/A02 [10] = experiment: Reversal of ABCB1 mediated adriamycin resistance in human K562/A02 cells overexpressing ABCB1 assessed as reduction in survival rate at 5 uM preincubated for 1 hrs followed by adriamycin addition and measured after 72 hrs by MTS assay; assay type: functional

SMILES | IC50 at 72 h [1] [µM] | IC50 at 72 h [2] [µM] | Activity (K562 [3]) | Activity (K562/A02 [4]) | Activity (K562 [5]) | Activity (K562/A02 [6]) | Activity (K562 [7]) | Activity (K562 [8]) | Activity (K562/A02 [9]; time 73.0 hrs) | Activity (K562/A02 [10]; time 73.0 hrs) | Activity (K562/A02 [9]; time 73 hrs) [%] | Activity (K562/A02 [10]; time 73 hrs) [%]
COc1cc2c(cc1OC)CN(Cc1c(-c3ccc(NC(=O)COc4ccccc4)cc3)nc3ccccn13)CC2 | > 100 | > 100 | inactive | Active |  |  |  |  |  |  |  | 
COc1cc2c(cc1OC)CN(CC(=O)Nc1ccc(-c3cn4ccccc4n3)cc1)CC2 |  |  |  |  | Non-Toxic | Non-Toxic | inactive | inactive | Active | Active |  | 
COc1cc2c(cc1OC)CN(CC(=O)Nc1ccc(-c3nc4ccccn4c3CO)cc1)CC2 |  |  |  |  | Non-Toxic | Non-Toxic | inactive | inactive | inactive | inactive |  | 
O=C(/C=C/c1ccc(F)cc1)Nc1ccc(-c2nc3ccccn3c2CN2CCN(c3ccccc3)CC2)cc1 | > 100 | > 100 | inactive | Active |  |  |  |  |  |  |  | 
COc1cc2c(cc1OC)CN(Cc1c(-c3ccc(NC(=O)COc4ccccc4C)cc3)nc3ccccn13)CC2 | > 100 | > 100 | inactive | Active |  |  |  |  |  |  |  | 
O=C(CCN1CCN(c2ccccc2)CC1)Nc1ccc(-c2nc3ccccn3c2CN2CCN(c3ccccc3)CC2)cc1 | 58.8 | 22.9 | inactive | Active |  |  |  |  |  |  |  | 
COc1cc2c(cc1OC)CN(CC(=O)Nc1ccc(-c3nc4ccccn4c3CN3CCN(c4ccccc4)CC3)cc1)CC2 | > 100 | > 100 | inactive | Active | Non-Toxic | Non-Toxic | inactive | inactive |  |  | 59 | 33
COc1cc2c(cc1OC)CN(CC(=O)Nc1ccc(-c3nc4ccccn4c3CN3CCC(=O)CC3)cc1)CC2 |  |  |  |  | Non-Toxic | Non-Toxic | inactive | inactive | Active | Active |  | 
COc1cc2c(cc1OC)CN(Cc1c(-c3ccc(NC(=O)COc4ccc(C)cc4)cc3)nc3ccccn13)CC2 | > 100 | > 100 | inactive | Active |  |  |  |  |  |  |  | 
COc1cc2c(cc1OC)CN(CC(=O)Nc1ccc(-c3nc4ccccn4c3CN3CCOCC3)cc1)CC2 |  |  |  |  | Non-Toxic | Non-Toxic | Active | Active | Active | Active |  | 
COc1cc2c(cc1OC)CN(CC(=O)Nc1ccc(-c3nc4ccccn4c3COCc3ccc(Cl)cc3)cc1)CC2 |  |  |  |  | Non-Toxic | Non-Toxic | Active | Active | Active | Active |  | 
CCN(CC)Cc1c(-c2ccc(NC(=O)CN3CCc4cc(OC)c(OC)cc4C3)cc2)nc2ccccn12 |  |  |  |  | Non-Toxic | Non-Toxic | inactive | inactive | Active | Active |  | 
COc1cc2c(cc1OC)CN(CC(=O)Nc1ccc(-c3nc4ccccn4c3CN3CCCC3)cc1)CC2 |  |  |  |  | Non-Toxic | Non-Toxic | inactive | inactive | Active | Active |  | 
COc1cc2c(cc1OC)CN(CC(=O)Nc1ccc(-c3nc4ccccn4c3CNCc3ccccc3)cc1)CC2 |  |  |  |  | Non-Toxic | 59.82% | inactive | inactive | Active | Active |  | 
O=C(CCCN1CCN(c2ccccc2)CC1)Nc1ccc(-c2nc3ccccn3c2CN2CCN(c3ccccc3)CC2)cc1 | 3.72 | 7.07 | Active | Active |  |  |  |  |  |  |  | 
COc1cc2c(cc1OC)CN(CC(=O)Nc1ccc(-c3nc4ccccn4c3CN3CCN(c4ccc(OC(F)(F)F)cc4)CC3)cc1)CC2 |  |  |  |  | Non-Toxic | Non-Toxic | inactive | inactive | Active | Active |  | 
COc1cc2c(cc1OC)CN(CC(=O)Nc1ccc(-c3nc4ccccn4c3CN(C)C)cc1)CC2 |  |  |  |  | Non-Toxic | Non-Toxic | inactive | inactive | Active | Active |  | 
COc1cc2c(cc1OC)CN(CC(=O)Nc1ccc(-c3nc4ccccn4c3COCc3ccccc3Cl)cc1)CC2 |  |  |  |  | Non-Toxic | Non-Toxic | inactive | inactive | Active | Active |  | 
COc1cc2c(cc1OC)CN(Cc1c(-c3ccc(NC(=O)COc4ccc(Cl)cc4)cc3)nc3ccccn13)CC2 | > 100 | 83 | inactive | Active |  |  |  |  |  |  |  | 
COc1cc2c(cc1OC)CN(CC(=O)Nc1ccc(-c3nc4ccccn4c3CN3CCCCC3)cc1)CC2 |  |  |  |  | Non-Toxic | Non-Toxic | Active | Active | Active | Active |  | 
O=C(/C=C/c1ccc([N+](=O)[O-])cc1)Nc1ccc(-c2nc3ccccn3c2CN2CCN(c3ccccc3)CC2)cc1 | 10.7 | 48.7 |  |  |  |  |  |  |  |  |  | 
O=C(CNCc1ccccc1)Nc1ccc(-c2nc3ccccn3c2CN2CCN(c3ccccc3)CC2)cc1 | 25.8 | 28.8 | inactive | Active |  |  |  |  |  |  |  | 
COc1cc2c(cc1OC)CN(CCC(=O)Nc1ccc(-c3nc4ccccn4c3CN3CCN(c4ccccc4)CC3)cc1)CC2 | 3.31 | 13.6 | Active | Active |  |  |  |  |  |  |  | 
COc1cc2c(cc1OC)CN(Cc1c(-c3ccc(NC(=O)COc4ccccc4Br)cc3)nc3ccccn13)CC2 | > 100 | > 100 |  |  |  |  |  |  |  |  |  | 
CN1CCN(CC(=O)Nc2ccc(-c3nc4ccccn4c3CN3CCN(c4ccccc4)CC3)cc2)CC1 | 21.4 | 54.6 |  |  |  |  |  |  |  |  |  | 
COc1cc(/C=C/C(=O)Nc2ccc(-c3nc4ccccn4c3CN3CCN(c4ccccc4)CC3)cc2)cc(OC)c1OC | > 100 | > 100 | inactive | Active |  |  |  |  |  |  |  | 
COc1cc2c(cc1OC)CN(CC(=O)Nc1ccc(-c3nc4ccccn4c3COCc3ccccc3)cc1)CC2 |  |  |  |  | Non-Toxic | Non-Toxic | inactive | inactive | Active | Active |  | 
COc1ccc(COCc2c(-c3ccc(NC(=O)CN4CCc5cc(OC)c(OC)cc5C4)cc3)nc3ccccn23)cc1 |  |  |  |  | Non-Toxic | Non-Toxic | inactive | inactive | Active | Active |  | 
O=C(Cn1cnnc1)Nc1ccc(-c2nc3ccccn3c2CN2CCN(c3ccccc3)CC2)cc1 | > 100 | > 100 |  |  |  |  |  |  |  |  |  | 
